Drawing on patent publication US20260250325A1, “Antiviral Polypeptide Membrane Fusion Inhibitor, and Preparation Method and Application Thereof” (priority 2025, published 2026), this text covers CC50, IC50 and Kd for five molecules.

Where a SMILES comes first, the peptide text is derived from it. The star is where a group is joined. Succinyl(4-O-cholesteryl) = CC(C)CCC[C@@H](C)[C@H]1CC[C@H]2[C@@H]3CC=C4C[C@@H](OC(=O)CCC(=O)*)CC[C@]4(C)[C@H]3CC[C@]12C

Data set [1] is described as follows: Cytotoxicity test in HEp-2 cells (CCK8 cell viability). The class given is cell-based. Particulars: human; HEp-2 cells, CCK8, 1 day; read-out: CC50. The method, boiled down: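 Compound dilutions (final DMSO 0.5%) were applied for 1 day to HEp-2 cells plated at 30,000 per well the day before. CCK8 signal gave survival relative to cell and medium controls, and a four-parameter log(inhibitor)-response fit yielded CC50.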

In data set [2] the test system is RSV A long virus strain. The class given is cell-based. The note with it: RSV A long virus strain, HEp-2 cells, plaque reduction, 1 day; read-out: IC50. Put shortly: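 Plaque reduction in HEp-2 cells: virus (100 PFU/well) and serially diluted compound (8 concentrations) mixed 1 h, adsorbed 2 h, then overlaid with 0.8% CMC medium plus compound for 1 day at 37 °C. Spots counted after anti-RSV immunostaining; IC50 from normalized inhibition, CC50 from viability data.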

For data set [3], the target named is T1, hMPV-N46 (127-172) (Human metapneumovirus, UniProt Q6WB98).
T1 construct: hMPV-N46 (127-172)
Put plainly: SPR affinity to hMPV-N46 coupled on CM5 chip. The class given is binding. The protocol:
(§1) hMPV and hPIV were two viruses having a typical Class I fusion protein-F protein. An F protein precursor F0 was cracked into F1 and F2 subunits. […] When the compound flowed through a chip surface, changes in an SPR signal were monitored in real time, binding and dissociation processes were recorded, and a binding rate constant (ka) and a dissociation rate constant (kd) were further obtained through kinetic analysis, thereby calculating an equilibrium dissociation constant (KD=kd/ka).
(§2) A CM5 chip with a catalog number 29149603, an amino coupling reagent kit with a catalog number BR100050, HBS-EP+Buffer (10×), sodium acetate (pH 4.0), and a 10 mM glycine-HCl buffer (pH 2.0) were all purchased from GE Health.
(§3) CM5 chip coupling: Channels 2 and 4 of the CM5 chip were activated for 7 min by using a freshly-prepared mixture of 50 mM Hydroxy succinimide (NHS) and 200 mM 1-(3-Dimethylaminopropyl)-3-ethylcarbodiimide (EDC) according to 1:1; and then, hMPV-N46 or hPIV-N51 was diluted and dissolved with sodium acetate with 4.0 pH to a concentration of 30 μM, with a flow rate of 10 μl/min and time of 600 s. An experimental buffer was HBS-EP+buffer (1×). Finally, the chip was blocked with 1 M ethanolamine. The instrument was set to a temperature of 25° C.
(§4) Affinity detection: the buffer used in the experiment was HBS-EP+buffer (1×), and a multi-cycle dynamic mode was used. Channels 1 and 3 of the chip served as blank reference channels; polypeptides to be detected sequentially flowed through Channels 2 and 4 at concentrations of 0 μM, 0.04 µM, 0.12 µM, 0.37 μM, 1.11 µM, 3.33 µM, 10 µM, and 30 μM; the flow rate was 30 μl/min, binding was performed for 180 s, and dissociation was performed for 120 s. Finally, the chip was regenerated by injecting 10 mM glycine (pH 2.0). The instrument was set to a temperature of 25° C.

The target in data set [4] is T2, hPIV-N51 (139-189) (Human parainfluenza 3 virus, UniProt P06828).
T2 construct: hPIV-N51 (139-189)
Put plainly: SPR affinity to hPIV-N51 coupled on CM5 chip. The class given is binding. Here is the method:
as §1, §2, §3, §4

The CC50 is the concentration that lowers cell viability or growth by half. The term IC50 denotes the concentration at which inhibition is half-maximal. As a reminder, the Kd is a measure of binding affinity in units of concentration.

T1 sequence (Q6WB98 127-172): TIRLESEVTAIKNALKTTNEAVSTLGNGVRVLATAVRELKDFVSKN
T2 sequence (P06828 139-189): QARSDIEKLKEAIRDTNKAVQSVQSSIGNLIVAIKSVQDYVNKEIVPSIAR

`CC[C@H](C)[C@H](NC(=O)[C@H](CCCCN)NC(=O)[C@H](CCC(=O)O)NC(=O)[C@H](CC(C)C)NC(=O)[C@H](CO)NC(=O)[C@H](CCC(N)=O)NC(=O)[C@H](CC(N)=O)NC(=O)[C@@H](NC(=O)[C@H](CCCCN)NC(=O)[C@H](CCC(=O)O)NC(=O)[C@H](CC(N)=O)NC(=O)[C@@H](NC(=O)[C@H](CCC(N)=O)NC(=O)[C@H](CO)NC(=O)[C@H](C)NC(=O)[C@H](CC(=O)O)NC(=O)[C@H](Cc1ccccc1)NC(=O)[C@@H](NC(=O)[C@H](CC(C)C)NC(=O)[C@H](CCC(=O)O)NC(=O)[C@H](CC(=O)O)NC(=O)[C@H](Cc1ccc(O)cc1)NC(C)=O)C(C)C)C(C)C)[C@@H](C)CC)C(=O)N[C@@H](CCCNC(=N)N)C(=O)N[C@@H](CCCCN)C(=O)N[C@@H](CO)C(=O)N[C@@H](CC(=O)O)C(=O)N[C@@H](CCC(=O)O)C(=O)N[C@@H](CC(C)C)C(=O)N[C@@H](CC(C)C)C(=O)N[C@@H](Cc1c[nH]cn1)C(=O)N[C@@H](CC(N)=O)C(=O)N[C@H](C(=O)NCC(=O)N[C@@H](CO)C(=O)NCC(=O)N[C@@H](CO)C(=O)NCC(=O)N[C@@H](CCCCNC(=O)CCC(=O)O[C@H]1CC[C@@]2(C)C(=CC[C@H]3[C@@H]4CC[C@H]([C@H](C)CCCC(C)C)[C@@]4(C)CC[C@@H]32)C1)C(N)=O)C(C)C` [Compound 25] (Ac-YDELVFDASQVNEKINQSLEKIRKSDELLHNVGSGSGK(Succinyl(4-O-cholesteryl))-NH2): the CC50 at 1 day in data set [1] was found to be 7500 nM. Moreover, the IC50 in data set [2] is 28.7 nM. Further, the values for the dissociation constant (Kd) in data set [3] and in data set [4] were 21100 nM and 74600 nM, respectively.

As to `CC[C@H](C)[C@H](NC(=O)[C@H](CO)NC(=O)[C@H](C)NC(=O)[C@H](CC(=O)O)NC(=O)[C@H](Cc1ccccc1)NC(=O)[C@H](CCC(=O)O)NC(=O)[C@H](CC(=O)O)NC(C)=O)C(=O)N[C@@H](CO)C(=O)N[C@@H](CCC(N)=O)C(=O)N[C@H](C(=O)N[C@@H](CC(N)=O)C(=O)N[C@@H](CCC(=O)O)C(=O)N[C@@H](CCCCN)C(=O)N[C@H](C(=O)N[C@@H](CC(N)=O)C(=O)N[C@@H](CCC(N)=O)C(=O)N[C@@H](CO)C(=O)N[C@@H](CC(C)C)C(=O)N[C@@H](CCC(=O)O)C(=O)N[C@@H](CCC(=O)O)C(=O)N[C@H](C(=O)N[C@@H](CCCNC(=N)N)C(=O)N[C@@H](CCCCN)C(=O)N[C@@H](CO)C(=O)N[C@@H](CC(=O)O)C(=O)N[C@@H](CCC(=O)O)C(=O)N[C@@H](CC(C)C)C(=O)N[C@@H](CC(C)C)C(=O)N[C@@H](Cc1c[nH]cn1)C(=O)N[C@@H](CC(N)=O)C(=O)N[C@@H](CCC(=O)O)C(=O)N[C@@H](C)C(=O)N[C@@H](C)C(=O)N[C@@H](C)C(=O)N[C@@H](CCCCN)C(=O)N[C@@H](CCCCNC(=O)CCC(=O)O[C@H]1CC[C@@]2(C)C(=CC[C@H]3[C@@H]4CC[C@H]([C@H](C)CCCC(C)C)[C@@]4(C)CC[C@@H]32)C1)C(N)=O)[C@@H](C)CC)[C@@H](C)CC)C(C)C` [Compound 28] (Ac-DEFDASISQVNEKINQSLEEIRKSDELLHNEAAAKK(Succinyl(4-O-cholesteryl))-NH2), in data set [1], the CC50 at 1 day was 8800 nM. In addition, in data set [2], the IC50 came out at 12.4 nM. The Kd in data set [3] amounted to 209 nM; in data set [4], 983000 nM.

Regarding `CC[C@H](C)[C@H](NC(=O)[C@H](CCCCN)NC(=O)[C@H](CCC(=O)O)NC(=O)[C@H](CC(C)C)NC(=O)[C@H](CO)NC(=O)[C@H](CCC(N)=O)NC(=O)[C@H](CC(N)=O)NC(=O)[C@@H](NC(=O)[C@H](CCCCN)NC(=O)[C@H](CCC(=O)O)NC(=O)[C@H](CC(N)=O)NC(=O)[C@@H](NC(=O)[C@H](CCC(N)=O)NC(=O)[C@H](CO)NC(=O)[C@H](C)NC(=O)[C@H](CC(=O)O)NC(=O)[C@H](Cc1ccccc1)NC(=O)[C@@H](NC(=O)[C@H](CC(C)C)NC(=O)[C@H](CCC(=O)O)NC(=O)[C@H](CC(=O)O)NC(=O)[C@H](Cc1ccc(O)cc1)NC(C)=O)C(C)C)C(C)C)[C@@H](C)CC)C(=O)N[C@@H](CCCNC(=N)N)C(=O)N[C@@H](CCCCN)C(=O)N[C@@H](CO)C(=O)N[C@@H](CC(=O)O)C(=O)N[C@@H](CCC(=O)O)C(=O)N[C@@H](CC(C)C)C(=O)N[C@@H](CC(C)C)C(=O)N[C@@H](Cc1c[nH]cn1)C(=O)N[C@@H](CC(N)=O)C(=O)N[C@H](C(=O)N[C@@H](CCC(=O)O)C(=O)N[C@@H](C)C(=O)N[C@@H](C)C(=O)N[C@@H](C)C(=O)N[C@@H](CCCCN)C(=O)N[C@@H](CCCCNC(=O)CCC(=O)O[C@H]1CC[C@@]2(C)C(=CC[C@H]3[C@@H]4CC[C@H]([C@H](C)CCCC(C)C)[C@@]4(C)CC[C@@H]32)C1)C(N)=O)C(C)C` [Compound 30] (Ac-YDELVFDASQVNEKINQSLEKIRKSDELLHNVEAAAKK(Succinyl(4-O-cholesteryl))-NH2), the CC50 at 1 day in data set [1] was determined as 6200 nM. The half-maximal inhibitory concentration (IC50) in data set [2] came to 14.9 nM. Also, the Kd came out at 187 nM in data set [3] and 1020 nM in data set [4].

Take `CC[C@H](C)[C@H](NC(=O)[C@H](CCCCN)NC(=O)[C@H](CCCCN)NC(=O)[C@H](CC(C)C)NC(=O)[C@H](CO)NC(=O)[C@H](CCC(=O)O)NC(=O)[C@H](CCC(=O)O)NC(=O)[C@@H](NC(=O)[C@H](CCCCN)NC(=O)[C@H](CCCCN)NC(=O)[C@H](CC(N)=O)NC(=O)[C@@H](NC(=O)[C@H](CCC(=O)O)NC(=O)[C@H](CCC(=O)O)NC(=O)[C@@H](NC(=O)[C@H](CCCCN)NC(=O)[C@H](CCCCN)NC(=O)[C@H](CC(=O)O)NC(=O)[C@H](Cc1ccccc1)NC(=O)[C@H](CCC(=O)O)NC(=O)[C@H](CC(=O)O)NC(=O)[C@H](Cc1c[nH]c2ccccc12)NC(C)=O)[C@@H](C)CC)C(C)C)[C@@H](C)CC)C(=O)N[C@@H](CCC(=O)O)C(=O)N[C@@H](CCC(=O)O)C(=O)N[C@@H](CO)C(=O)N[C@@H](CC(=O)O)C(=O)N[C@@H](CCCCN)C(=O)N[C@@H](CCCCN)C(=O)N[C@@H](CC(C)C)C(=O)N[C@@H](CCC(=O)O)C(=O)N[C@@H](CCC(=O)O)C(=O)N[C@H](C(=O)N[C@@H](CC(N)=O)C(=O)N[C@@H](C)C(=O)N[C@@H](CCC(=O)O)C(=O)N[C@@H](C)C(=O)N[C@@H](C)C(=O)N[C@@H](C)C(=O)N[C@@H](CCCCN)C(=O)N[C@@H](CCCCNC(=O)CCC(=O)O[C@H]1CC[C@@]2(C)C(=CC[C@H]3[C@@H]4CC[C@H]([C@H](C)CCCC(C)C)[C@@]4(C)CC[C@@H]32)C1)C(N)=O)C(C)C` [Compound 40] (Ac-WDEFDKKIEEVNKKIEESLKKIEESDKKLEEVNAEAAAKK(Succinyl(4-O-cholesteryl))-NH2): the CC50 at 1 day in data set [1] was 13000 nM. The IC50 in data set [2] came to 11.7 nM. Besides, the Kd in data set [3] was 2470 nM; in data set [4], 2270 nM.

With `CC[C@H](C)[C@H](NC(=O)[C@H](CCCCN)NC(=O)[C@H](CCCCN)NC(=O)[C@H](CC(C)C)NC(=O)[C@H](CO)NC(=O)[C@H](CCC(=O)O)NC(=O)[C@H](CCC(=O)O)NC(=O)[C@@H](NC(=O)[C@H](CCCCN)NC(=O)[C@H](CCCCN)NC(=O)[C@H](CC(N)=O)NC(=O)[C@@H](NC(=O)[C@H](CCC(=O)O)NC(=O)[C@H](CCC(=O)O)NC(=O)[C@@H](NC(=O)[C@H](CCCCN)NC(=O)[C@H](CCCCN)NC(=O)[C@H](CC(=O)O)NC(=O)[C@H](Cc1ccccc1)NC(=O)[C@H](CCC(=O)O)NC(=O)[C@H](CC(=O)O)NC(=O)[C@H](Cc1c[nH]c2ccccc12)NC(C)=O)[C@@H](C)CC)C(C)C)[C@@H](C)CC)C(=O)N[C@@H](CCC(=O)O)C(=O)N[C@@H](CCC(=O)O)C(=O)N[C@@H](CO)C(=O)N[C@@H](CC(=O)O)C(=O)N[C@@H](CCCCN)C(=O)N[C@@H](CCCCN)C(=O)N[C@@H](CC(C)C)C(=O)N[C@@H](CCC(=O)O)C(=O)N[C@@H](CCC(=O)O)C(=O)N[C@H](C(=O)N[C@@H](CC(N)=O)C(=O)N[C@@H](CCC(=O)O)C(=O)N[C@@H](C)C(=O)N[C@@H](C)C(=O)N[C@@H](C)C(=O)N[C@@H](CCCCN)C(=O)N[C@@H](CCCCNC(=O)CCC(=O)O[C@H]1CC[C@@]2(C)C(=CC[C@H]3[C@@H]4CC[C@H]([C@H](C)CCCC(C)C)[C@@]4(C)CC[C@@H]32)C1)C(N)=O)C(C)C` [Compound 41] (Ac-WDEFDKKIEEVNKKIEESLKKIEESDKKLEEVNEAAAKK(Succinyl(4-O-cholesteryl))-NH2), in data set [1], the CC50 at 1 day is 17000 nM. In addition, in data set [2], the IC50 was found to be 14.8 nM. For the same molecule, the Kd came out at 4730 nM in data set [3] and 492 nM in data set [4].
